We go through 1 compound from patent US9126997B1, “Synergistic effect of glucocorticoid receptor agonists in combination with proteosome inhibitors for treating leukemia and myeloma” (Northwestern University, priority 2010, dated 2015).

The subject of test [1] is glucocorticoid receptor (GR). Kind of test: Function (transactivation / transrepression) of GR accumulated after cell pre-treatment with BZ in the presence of GR ligands. Format: cell-based. An excerpt:
(§1) Further, GR protein expression can be increased both in the absence and in the presence of […] such as glucocorticoids and SEGRA. Importantly, in the presence of GR ligands, cell pre-treatment with BZ results in the accumulation of GR whose function is defined by the ligand. […] Thus, SEGRA+BZ administered in combination will maximize the anti-inflammatory and anti-proliferative effects of SEGRA therapy that are based on GR transrepression, and at the same time will not induce metabolic side effects typical for glucocorticoids that are based on GR transactivation.

Test [2] has as its system glucocorticoid receptor (GR). Kind of test: GR protein levels in cells after treatment with proteasome inhibitor. The class given is cell-based, human.
Excerpt: as §1

As for `CC(C)C[C@H](NC(=O)[C@H](Cc1ccccc1)NC(=O)c1cnccn1)B(O)O` [Bortezomib], the “GR accumulation and function” value in test [1] (in the presence of SEGRA) is “accumulation of GR whose activity is shifted towards transrepression”; in test [1] (in the presence of glucocorticoids), “accumulation of GR that is proficient in both transactivation and transrepression”. In test [2] (human epithelial and lymphoid cell lines and primary cell cultures), the “endogenous GR protein levels” value is given as “strongly increases endogenous GR protein levels”. Also, the “GR expression in GR-negative cells” value in test [2] (some glucocorticoid-resistant GR-negative cells) is listed as “re-expression of GR”.
